Results as given in BindingDB's records for doi:10.1021/jm9803626 (Dupont Pharmaceuticals, 1999).

Molecular target: T1, Dimer of Gag-Pol polyprotein [489-587] (Human immunodeficiency virus 1, UniProt P04585)
T1 construct: 489-587
Assay: Protease Inhibition Assay
Protocol: Inhibition of HIV protease was measured by assay of the cleavage of a fluorescent peptide substrate. The fluorescent product (2-aminobenzoyl-Ala-Thr-His-Gln-Val-Tyr) was separated from the fluorescent substrate by anion-exchange HPLC on a Mono-Q anion-exchange column (Pharmacia), and fluorescence was monitored at an excitation wavelength of 330 nm and an emission wavelength of 430 nm. Ki values for inhibitor binding were estimated at fixed concentrations of substrate and inhibitor from fractional activity measurements by use of the modified Michaelis-Menten equation.

Compound	Ki [nM]
O=C1N[C@H](CCc2ccccc2)[C@@H](O)[C@@H](Cc2ccccc2)N1Cc1ccccc1 [(4R,5S,6R)-Tetrahydro-1,6-bis-(phenylmethyl)-5-hydroxy-4-(2-phenylethyl)-2(1H)-pyrimidinone]	66
N/C(=N\O)c1cccc(CN2C(=O)N[C@H](CCc3ccccc3)[C@@H](O)[C@H]2Cc2ccccc2)c1 [(4R,5R,6R)-Tetrahydro-1-(3-(N-hydroxycarboximidamide)phenylmethyl)-6-phenylmethyl-5-hydroxy-4-(2-phenylethyl)-2(1H)-pyrimidinone]	0.24
